Data taken from ChEMBL document CHEMBL1133499, “Design, synthesis, and in vitro biological activity of indole-based factor Xa inhibitors” (Bioorg Med Chem Lett, 2000).

Assays:
Coagulation factor X = Coagulation factor X (Homo sapiens, UniProt P00742); experiment: In vitro inhibition of human Coagulation factor X.
Prothrombin = Prothrombin (Homo sapiens, UniProt P00734); experiment: In vitro inhibition of human Coagulation factor II.

Sequence of Coagulation factor X (P00742 41-179 limits assumed): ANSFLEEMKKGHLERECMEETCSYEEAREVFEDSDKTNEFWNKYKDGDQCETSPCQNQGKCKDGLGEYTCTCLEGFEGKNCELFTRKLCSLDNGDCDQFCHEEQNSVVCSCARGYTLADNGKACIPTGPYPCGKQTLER
Sequence of Coagulation factor X (P00742 235-488 limits assumed): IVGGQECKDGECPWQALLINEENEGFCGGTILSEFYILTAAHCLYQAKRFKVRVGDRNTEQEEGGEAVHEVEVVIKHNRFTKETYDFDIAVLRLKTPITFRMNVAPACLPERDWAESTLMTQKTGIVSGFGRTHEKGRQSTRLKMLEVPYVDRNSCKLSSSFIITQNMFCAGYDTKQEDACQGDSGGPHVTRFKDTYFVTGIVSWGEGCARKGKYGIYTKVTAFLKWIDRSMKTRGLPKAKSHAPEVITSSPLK

SMILES | Ki (Coagulation factor X) | Ki (Prothrombin)
N=C(N)c1cccc(CNc2ccc3ccn(-c4cccc(C(=N)N)c4)c3c2)c1 | 190 nM | 4000 nM
N=C(N)c1ccc(-n2ccc3ccc(NCc4ccc5ccc(C(=N)N)cc5c4)cc32)cc1 | 30 nM | 570 nM
N=C(N)c1ccc(-n2ccc3ccc(NCc4cccc(C(=N)N)c4)cc32)cc1 | 340 nM | 3780 nM
CC(=N)N1CCC(Oc2ccc3cc(C(=O)NC(CC(=O)O)C(=O)O)n(Cc4ccc5ccc(C(=N)N)cc5c4)c3c2)CC1 (configuration not stated) | 20 nM | 2350 nM
N=C(N)c1ccc(CNc2ccc3ccn(Cc4ccc(C(=N)N)cc4)c3c2)cc1 |  | 3530 nM
N=C(N)c1ccc(-n2c3ccccc3c3ccc(OCc4ccc5ccc(C(=N)N)cc5c4)cc32)cc1 | 60 nM | 1990 nM
CC(=N)N1CCC(Oc2ccc3cc(C(=O)N(C)C)n(Cc4ccc5ccc(C(=N)N)cc5c4)c3c2)CC1 | 3.5 nM | 1050 nM
N=C(N)c1ccc(CNc2ccc3ccn(-c4ccc(C(=N)N)cc4)c3c2)cc1 | 840 nM | 4530 nM
N=C(N)c1ccc(-n2ccc3ccc(NC(=O)c4cccc(C(=N)N)c4)cc32)cc1 | 160 nM | 2320 nM

Compounds with a lower Ki (Prothrombin), results first:

Ki (Coagulation factor X) | Ki (Prothrombin) | SMILES
4 nM | 90 nM | N=C(N)c1ccc2ccc(Cn3c4ccccc4c4ccc(OC5CCNCC5)cc43)cc2c1
0.9 nM | 170 nM | N=C(N)c1cccc(Oc2ccc3c4ccccc4n(Cc4ccc5ccc(C(=N)N)cc5c4)c3c2)c1
5 nM | 50 nM | CN(C)C(=O)COc1ccc2c3ccccc3n(Cc3ccc4ccc(C(=N)N)cc4c3)c2c1
 | 210 nM | N=C(N)c1ccc(Oc2ccc3c4ccccc4n(Cc4ccc5ccc(C(=N)N)cc5c4)c3c2)cc1
4.6 nM | 520 nM | CC(=N)N1CCC(Oc2ccc3cc(C(=O)O)n(Cc4ccc5ccc(C(=N)N)cc5c4)c3c2)CC1
0.2 nM | 180 nM | COC(=O)c1cc2ccc(OC3CCN(C(C)=N)CC3)cc2n1Cc1ccc2ccc(C(=N)N)cc2c1
1.6 nM | 40 nM | CC(=N)N1CCC(Oc2ccc3c4ccccc4n(Cc4ccc5ccc(C(=N)N)cc5c4)c3c2)CC1
0.6 nM | 360 nM | CCOC(=O)c1cc2ccc(OC3CCN(C(C)=N)CC3)cc2n1Cc1ccc2ccc(C(=N)N)cc2c1
